Results as given in the supplement of paper PMC10733146.

Key:
Assay in all cases: viability relative to DMSO control (fraction); higher = less drug effect (more viable cells)
Conditions in all cases: 48 h
Pomalidomide = compound: Nc1cccc2c1C(=O)N(C1CCC(=O)NC1=O)C2=O [Pomalidomide]
Method in brief: (§1)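 The cells were primary mononuclear tumour cells, either fresh or cryopreserved, isolated by Ficoll from blood or bone marrow or derived from processed lymph node. Each well of a 384-well plate received 4 × 10^4 cells onto compounds pre-plated at five concentrations, with one well per concentration. The medium was RPMI-1640 with penicillin/streptomycin, L-glutamine and human serum, and plates stood at 37 °C and 5% CO2 for 48 h. Viability is reported as CellTiter-Glo luminescence relative to the median of 16 inner DMSO wells.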

Chlorambucil = compound: O=C(O)CCCc1ccc(N(CCCl)CCCl)cc1 [Chlorambucil]
Method in brief: as §1

Filgotinib = compound: O=C(Nc1nc2cccc(-c3ccc(CN4CCS(=O)(=O)CC4)cc3)n2n1)C1CC1 [Filgotinib]
Method in brief: as §1

[1] = compound: C[C@H](NC(=O)CCC(F)(F)F)C(=O)N[C@@H]1C(=O)N(CCO)c2ncccc2-c2ccccc21
Method in brief: as §1

[2] = compound: O=C(Nc1ccc2[nH]nc(-c3ccncc3)c2c1)[C@@H]1CCN(CC(=O)N2CCN(c3ccc(-c4ncccn4)cc3)CC2)C1
Method in brief: as §1

Thalidomide = compound: O=C1CCC(N2C(=O)c3ccccc3C2=O)C(=O)N1 [Thalidomide]
Method in brief: as §1

Navitoclax = compound: CC1(C)CCC(c2ccc(Cl)cc2)=C(CN2CCN(c3ccc(C(=O)NS(=O)(=O)c4ccc(N[C@H](CCN5CCOCC5)CSc5ccccc5)c(S(=O)(=O)C(F)(F)F)c4)cc3)CC2)C1 [Navitoclax]
Method in brief: as §1

[3] = compound: C[C@H]1C[C@@H](n2c(Nc3ccc(OC(F)(F)F)cc3)nc3cc(CCC(=O)O)ccc32)CC(C)(C)C1
Method in brief: as §1

I-BET-762 = compound: CCNC(=O)C[C@@H]1N=C(c2ccc(Cl)cc2)c2cc(OC)ccc2-n2c(C)nnc21 [I-BET-762]
Method in brief: as §1

Idasanutlin (RS7388) = compound: COc1cc(C(=O)O)ccc1NC(=O)[C@@H]1N[C@@H](CC(C)(C)C)[C@](C#N)(c2ccc(Cl)cc2F)[C@H]1c1cccc(Cl)c1F [Idasanutlin (RS7388)]
Method in brief: as §1

Duvelisib = compound: C[C@H](Nc1ncnc2nc[nH]c12)c1cc2cccc(Cl)c2c(=O)n1-c1ccccc1 [Duvelisib]
Method in brief: as §1

[4] = compound: CCc1ccc(/C=C2/SC(=S)NC2=O)cc1
Method in brief: as §1

Vindesine = compound: CC[C@]1(O)C[C@@H]2CN(CCc3c([nH]c4ccccc34)[C@@](C(=O)OC)(c3cc4c(cc3OC)N(C)[C@H]3[C@@](O)(C(N)=O)[C@H](O)[C@]5(CC)C=CCN6CC[C@]43[C@@H]65)C2)C1 [Vindesine]
Method in brief: as §1

[5] = compound: O=C(NO)c1cccc(C(=O)NCCc2ccccc2)c1
Method in brief: as §1

Venetoclax = compound: CC1(C)CCC(CN2CCN(c3ccc(C(=O)NS(=O)(=O)c4ccc(NCC5CCOCC5)c([N+](=O)[O-])c4)c(Oc4cnc5[nH]ccc5c4)c3)CC2)=C(c2ccc(Cl)cc2)C1 [Venetoclax]
Method in brief: as §1

## primary AML patient cells (S056)
Pomalidomide; 0.0032 µM
  viability: 0.921
Pomalidomide; 0.016 µM
  viability: 0.823
Pomalidomide; 0.08 µM
  viability: 0.967
Pomalidomide; 0.4 µM
  viability: 0.791
Pomalidomide; 2 µM
  viability: 0.908
Chlorambucil; 0.032 µM
  viability: 1.13
Chlorambucil; 0.16 µM
  viability: 1.03
Chlorambucil; 0.8 µM
  viability: 1.04
Chlorambucil; 4 µM
  viability: 0.942
Chlorambucil; 20 µM
  viability: 0.287
Filgotinib; 0.024 µM
  viability: 1.08
Filgotinib; 0.12 µM
  viability: 0.965
Filgotinib; 0.6 µM
  viability: 0.78
Filgotinib; 3 µM
  viability: 0.376
Filgotinib; 15 µM
  viability: 0.391
[1]; 0.016 µM
  viability: 1.04
[1]; 0.08 µM
  viability: 0.994
[1]; 0.4 µM
  viability: 0.979
[1]; 2 µM
  viability: 1.55
[1]; 10 µM
  viability: 0.983
[2]; 0.008 µM
  viability: 0.673
[2]; 0.04 µM
  viability: 0.609
[2]; 0.2 µM
  viability: 0.527
[2]; 1 µM
  viability: 0.455
[2]; 5 µM
  viability: 0.337
Thalidomide; 0.032 µM
  viability: 0.911
Thalidomide; 0.16 µM
  viability: 0.998
Thalidomide; 0.8 µM
  viability: 0.991
Thalidomide; 4 µM
  viability: 0.809
Thalidomide; 20 µM
  viability: 0.693
Navitoclax; 0.0032 µM
  viability: 0.818
Navitoclax; 0.016 µM
  viability: 0.547
Navitoclax; 0.08 µM
  viability: 0.515
Navitoclax; 0.4 µM
  viability: 0.182
Navitoclax; 2 µM
  viability: 0.0463
[3]; 0.024 µM
  viability: 0.631
[3]; 0.12 µM
  viability: 0.802
[3]; 0.6 µM
  viability: 0.722
[3]; 3 µM
  viability: 0.722
[3]; 15 µM
  viability: 0.702
I-BET-762; 0.008 µM
  viability: 0.739
I-BET-762; 0.04 µM
  viability: 0.991
I-BET-762; 0.2 µM
  viability: 0.927
I-BET-762; 1 µM
  viability: 0.461
I-BET-762; 5 µM
  viability: 0.201
Idasanutlin (RS7388); 0.032 µM
  viability: 0.574
Idasanutlin (RS7388); 0.16 µM
  viability: 0.333
Idasanutlin (RS7388); 0.8 µM
  viability: 0.147
Idasanutlin (RS7388); 4 µM
  viability: 0.0924
Idasanutlin (RS7388); 20 µM
  viability: 0.0823
Duvelisib; 0.0016 µM
  viability: 1.02
Duvelisib; 0.008 µM
  viability: 0.696
Duvelisib; 0.04 µM
  viability: 0.852
Duvelisib; 0.2 µM
  viability: 0.737
Duvelisib; 1 µM
  viability: 0.686
[4]; 0.024 µM
  viability: 0.77
[4]; 0.12 µM
  viability: 0.689
[4]; 0.6 µM
  viability: 0.789
[4]; 3 µM
  viability: 0.807
[4]; 15 µM
  viability: 0.951
Vindesine; 0.016 µM
  viability: 0.915
Vindesine; 0.08 µM
  viability: 0.467
Vindesine; 0.4 µM
  viability: 0.242
Vindesine; 2 µM
  viability: 0.206
Vindesine; 10 µM
  viability: 0.177
[5]; 0.024 µM
  viability: 1.1
[5]; 0.12 µM
  viability: 1.17
[5]; 0.6 µM
  viability: 0.856
[5]; 3 µM
  viability: 0.894
[5]; 15 µM
  viability: 0.596
Venetoclax; 0.00064 µM
  viability: 0.907
Venetoclax; 0.0032 µM
  viability: 0.445
Venetoclax; 0.016 µM
  viability: 0.29
Venetoclax; 0.08 µM
  viability: 0.269
Venetoclax; 0.4 µM
  viability: 0.0674

## primary T-PLL patient cells (S008)
Pomalidomide; 0.0032 µM
  viability: 0.949
Pomalidomide; 0.016 µM
  viability: 1.07
Pomalidomide; 0.08 µM
  viability: 1.03
Pomalidomide; 0.4 µM
  viability: 0.91
Pomalidomide; 2 µM
  viability: 0.944
Chlorambucil; 0.032 µM
  viability: 0.977
Chlorambucil; 0.16 µM
  viability: 0.955
Chlorambucil; 0.8 µM
  viability: 1.01
Chlorambucil; 4 µM
  viability: 0.984
Chlorambucil; 20 µM
  viability: 0.661
Filgotinib; 0.024 µM
  viability: 1.02
Filgotinib; 0.12 µM
  viability: 1.05
Filgotinib; 0.6 µM
  viability: 0.992
Filgotinib; 3 µM
  viability: 1.01
Filgotinib; 15 µM
  viability: 0.761
[1]; 0.016 µM
  viability: 1.04
[1]; 0.08 µM
  viability: 1.02
[1]; 0.4 µM
  viability: 0.977
[1]; 2 µM
  viability: 0.968
[1]; 10 µM
  viability: 0.928
[2]; 0.008 µM
  viability: 1.03
[2]; 0.04 µM
  viability: 1.03
[2]; 0.2 µM
  viability: 1.04
[2]; 1 µM
  viability: 1.06
[2]; 5 µM
  viability: 0.938
Thalidomide; 0.032 µM
  viability: 1.04
Thalidomide; 0.16 µM
  viability: 0.979
Thalidomide; 0.8 µM
  viability: 1.04
Thalidomide; 4 µM
  viability: 0.987
Thalidomide; 20 µM
  viability: 1.05
Navitoclax; 0.0032 µM
  viability: 1.01
Navitoclax; 0.016 µM
  viability: 1.04
Navitoclax; 0.08 µM
  viability: 0.648
Navitoclax; 0.4 µM
  viability: 0.115
Navitoclax; 2 µM
  viability: 0.0601
[3]; 0.024 µM
  viability: 0.96
[3]; 0.12 µM
  viability: 1.03
[3]; 0.6 µM
  viability: 1.04
[3]; 3 µM
  viability: 0.96
[3]; 15 µM
  viability: 0.983
I-BET-762; 0.008 µM
  viability: 1.03
I-BET-762; 0.04 µM
  viability: 1.03
I-BET-762; 0.2 µM
  viability: 1.05
I-BET-762; 1 µM
  viability: 1.03
I-BET-762; 5 µM
  viability: 0.988
Idasanutlin (RS7388); 0.032 µM
  viability: 0.876
Idasanutlin (RS7388); 0.16 µM
  viability: 0.888
Idasanutlin (RS7388); 0.8 µM
  viability: 0.656
Idasanutlin (RS7388); 4 µM
  viability: 0.325
Idasanutlin (RS7388); 20 µM
  viability: 0.125
Duvelisib; 0.0016 µM
  viability: 0.994
Duvelisib; 0.008 µM
  viability: 0.976
Duvelisib; 0.04 µM
  viability: 1.02
Duvelisib; 0.2 µM
  viability: 0.985
Duvelisib; 1 µM
  viability: 1.02
[4]; 0.024 µM
  viability: 0.995
[4]; 0.12 µM
  viability: 0.946
[4]; 0.6 µM
  viability: 1.12
[4]; 3 µM
  viability: 0.984
[4]; 15 µM
  viability: 0.984
Vindesine; 0.016 µM
  viability: 0.631
Vindesine; 0.08 µM
  viability: 0.332
Vindesine; 0.4 µM
  viability: 0.276
Vindesine; 2 µM
  viability: 0.22
Vindesine; 10 µM
  viability: 0.118
[5]; 0.024 µM
  viability: 1.07
[5]; 0.12 µM
  viability: 1.03
[5]; 0.6 µM
  viability: 1.03
[5]; 3 µM
  viability: 1.07
[5]; 15 µM
  viability: 1.06
Venetoclax; 0.00064 µM
  viability: 1.03
Venetoclax; 0.0032 µM
  viability: 0.874
Venetoclax; 0.016 µM
  viability: 0.463
Venetoclax; 0.08 µM
  viability: 0.0995
Venetoclax; 0.4 µM
  viability: 0.0666
